The IC50 is the concentration at which inhibition is half-maximal. Higher therefore signals weaker potency in that assay.

SMILES strings stand for the structures.

This experiment has as its target T1, Probable integral membrane cytochrome D ubiquinol oxidase (Subunit II) CydB (Cytochrome BD-I oxidase subunit II) (Mycobacterium tuberculosis (strain ATCC 25618 / H37Rv), UniProt O06139).
T1 sequence (O06139 whole entry): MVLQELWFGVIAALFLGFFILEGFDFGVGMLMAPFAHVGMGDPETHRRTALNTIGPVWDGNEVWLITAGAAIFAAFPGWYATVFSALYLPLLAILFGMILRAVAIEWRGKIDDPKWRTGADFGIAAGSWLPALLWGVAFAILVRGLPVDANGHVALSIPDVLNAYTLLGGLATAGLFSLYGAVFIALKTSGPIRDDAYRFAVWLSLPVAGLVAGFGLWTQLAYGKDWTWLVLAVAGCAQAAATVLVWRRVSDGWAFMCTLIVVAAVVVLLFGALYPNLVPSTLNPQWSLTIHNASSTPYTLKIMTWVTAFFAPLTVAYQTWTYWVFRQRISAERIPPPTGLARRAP
Put plainly: Mtb cytochrome bd inhibition assay.
`Cc1c(-c2ccc(-c3ccc(C(F)(F)F)nc3)nc2)[nH]c2ccccc2c1=O` [US10799494, Compound PG-128]: the IC50 is 4470 nM. The value for `COc1ccc2c(=O)c(C)c(-c3ccc(N4CCCCC4)cc3)[nH]c2c1` [US10799494, Compound RKA-310] was 1400 nM.

As to `CC(C)c1c(-c2cnn(Cc3ccc(OC(F)(F)F)cc3)c2)[nH]c2ccccc2c1=O` [US10799494, Example WDH-2G-6], it took 82 nM to reach half-maximal inhibition (IC50). `Cc1c(-c2ccc(Cc3ccccc3)cc2)[nH]c2ccccc2c1=O` [US10799494, Compound CK-2-88] showed an IC50 of 20 nM. In turn, `Cc1c(-c2ccc(Oc3ccc(OC(F)(F)F)cc3)nc2)[nH]c2ccccc2c1=O` [US10799494, Compound CK-3-22] returned an IC50 of 140 nM.

Molecule `Cc1c(-c2ccc(N3CCCCC3)cc2)[nH]c2ccccc2c1=O` [US10799494, Compound RKA-307] came in with a concentration for half-maximal inhibition (IC50) of 440 nM.

In turn, `COc1c(C)c(-c2ccc(Cc3ccccc3)cc2)nc2ccccc12` [US10799494, Compound CK-3-23] registered an IC50 of 3600 nM. The molecule `Cc1c(-c2ccc(-c3ccc(OC(F)(F)F)cc3)nc2)[nH]c2ccccc2c1=O` [US10799494, Compound SL-2-25] yielded an IC50 of 290 nM. In turn, `Cc1c(-c2ccc(N3CCCCC3)cc2)[nH]c2cc(F)cc(F)c2c1=O` [US10799494, Compound MTD-403] came in with a half-inhibitory concentration (IC50) of 270 nM. Consider `O=c1cc(-c2ccc(Cc3ccc(OC(F)(F)F)cc3)cc2)[nH]c2ccccc12` [US10799494, Compound RKA-70], for which the IC50 was determined as 750 nM. Molecule `O=c1cc(-c2ccc(Cc3ccc(OC(F)(F)F)cc3)cc2)n(O)c2ccccc12` [US10799494, Compound RKA-73] came in with an IC50 of 310 nM. The value for `CCOC(=O)c1c(-c2ccc(Cc3ccc(OC(F)(F)F)cc3)cc2)[nH]c2ccccc2c1=O` [US10799494, Compound GN-1710] was 250 nM; that for `Cc1[nH]c2ccccc2c(=O)c1-c1ccc(Oc2ccc(OC(F)(F)F)cc2)cc1` [US10799494, Compound PG-203] was 70 nM. `Cc1c(-c2ccc(Oc3ccc(F)cc3)nc2)[nH]c2ccccc2c1=O` [US10799494, Compound CK-3-14] showed a 50% inhibitory concentration (IC50) of 10600 nM. Turning to `COc1ccc2c(=O)c(C)c(-c3ccc(Oc4ccc(OC(F)(F)F)cc4)nc3)[nH]c2c1` [US10799494, Compound RKA-259], the IC50 was found to be 3600 nM. `Cc1c(-c2cnn(Cc3ccc(OC(F)(F)F)cc3)c2)[nH]c2ccccc2c1=O` [US10799494, Compound WDH-2A-9] yielded an IC50 of 6500 nM.

For `O=c1cc(-c2cnn(Cc3ccc(OC(F)(F)F)cc3)c2)[nH]c2ccccc12` [US10799494, Compound WDH-1W-5], the half-inhibitory concentration (IC50) is 15800 nM. On to `Cc1c(-c2ccc(-c3ccc(C(F)(F)F)cc3)nc2)[nH]c2ccccc2c1=O` [US10799494, Example RKA 142], for which half-maximal inhibition (IC50) required 2020 nM.

(Values after BindingDB's records for patent US10799494 (2020).)
